Measurements from the NIST ThermoML archive (doi:10.1021/je200575c).
± gives the expanded uncertainty stated by the source.

Settings: Liquid, Vibrating tube method

Q: For `CCCCCCCCCCCCCC` [tetradecane], which mass density (323.2 K, 1050 kPa) is on record?
A: 737 ± 2 kg/m3

Q: And the mass density (323.2 K, 2020 kPa)?
A: 742 ± 2 kg/m3

Q: What about the mass density (323.2 K, 3160 kPa) of the same molecule?
A: 743 ± 2 kg/m3

Q: What about the mass density (323.2 K, 4070 kPa) of the same molecule?
A: 744 ± 2 kg/m3

Q: What about the mass density (323.2 K, 5060 kPa) of the same molecule?
A: 745 ± 2 kg/m3

Q: And the mass density (323.3 K, 5940 kPa)?
A: 745 ± 2 kg/m3

Q: What about the mass density (373.4 K, 2080 kPa) of the same molecule?
A: 707 ± 2 kg/m3

Q: What about the mass density (373.4 K, 4050 kPa) of the same molecule?
A: 709 ± 2 kg/m3

Q: What about the mass density (373.4 K, 6010 kPa) of the same molecule?
A: 710 ± 2 kg/m3

Q: And the mass density (373.4 K, 7070 kPa)?
A: 711 ± 2 kg/m3

Q: What about the mass density (373.5 K, 2970 kPa) of the same molecule?
A: 708 ± 2 kg/m3

Q: And the mass density (373.5 K, 5010 kPa)?
A: 710 ± 2 kg/m3

Q: What about the mass density (373.6 K, 1010 kPa) of the same molecule?
A: 706 ± 2 kg/m3

Q: And the mass density (422.5 K, 1080 kPa)?
A: 672 ± 2 kg/m3

Q: And the mass density (422.5 K, 2140 kPa)?
A: 673 ± 2 kg/m3

Q: What about the mass density (422.6 K, 3020 kPa) of the same molecule?
A: 675 ± 2 kg/m3

Q: What about the mass density (422.6 K, 4020 kPa) of the same molecule?
A: 676 ± 2 kg/m3

Q: And the mass density (422.6 K, 5040 kPa)?
A: 677 ± 2 kg/m3

Q: And the mass density (422.6 K, 6050 kPa)?
A: 679 ± 2 kg/m3

Q: What about the mass density (422.7 K, 7000 kPa) of the same molecule?
A: 680 ± 2 kg/m3

Q: And the mass density (422.7 K, 8000 kPa)?
A: 681 ± 2 kg/m3
